Our source for the target mRNA knockdown values is the OligoGym collection.

Values joined by “and” are separate entries in the source; they are usually repeats but may differ in a detail not shown here. Equal entries are not always repeated. HELM strings list units from the 5' end as sugar, base in round brackets, then linkage (d deoxyribose, r ribose, m 2'-O-methyl, p phosphodiester). Strings are as the collection lists them, not checked against the first reports. ss, as = sense and antisense strand; [lna] = locked nucleic acid (LNA); [una] = unlocked nucleic acid; [hna] = hexitol nucleic acid; [s4r] = 4'-thioribose; [fl2r] = 2'-fluoro
Also: test system not given here.

The conditions of this data set: siRNA.
For the substance “RNA1{r(G)p.r(C)p.r(A)p.r(A)p.r(G)p.r(U)p.r(G)p.r(G)p.r(C)p.r(A)p.r(A)p.r(G)p.r(A)p.r(G)p.r(G)p.r(A)p.r(U)p.m(U)p.r(A)p.r(T)p.r(T)}|RNA2{m(U)p.r(A)p.r(A)p.r(U)p.r(C)p.r(C)p.r(U)p.r(C)p.r(U)p.r(U)p.r(G)p.r(C)p.r(C)p.r(A)p.r(C)p.r(U)p.r(U)p.r(G)p.r(C)p.r(T)p.r(T)}$$$RNA1{StrandType:ss}|RNA2{StrandType:as}$”, the target mRNA knockdown is 69%.

“RNA1{r(C)p.m(C)p.r(C)p.m(C)p.r(A)p.m(G)p.r(G)p.m(U)p.r(A)p.m(A)p.r(C)p.m(G)p.r(A)p.r(U)p.r(U)p.m(U)p.r(U)p.r(C)p.r(U)p.r(T)p.r(T)}|RNA2{r(A)p.r(G)p.r(A)p.r(A)p.r(A)p.r(A)p.r(U)p.m(C)p.r(G)p.r(U)p.r(U)p.r(A)p.m(C)p.m(C)p.r(U)p.r(G)p.r(G)p.r(G)p.r(G)p.r(T)p.r(T)}$$$RNA1{StrandType:ss}|RNA2{StrandType:as}$” yielded a target mRNA knockdown of 69%.

In the case of “RNA1{r(G)p.r(C)p.r(U)p.r(U)p.m(U)p.m(A)p.r(A)p.r(G)p.r(G)p.r(A)p.r(A)p.r(C)p.m(U)p.r(G)p.r(G)p.r(A)p.r(A)p.r(G)p.r(G)p.r(T)p.r(T)}|RNA2{r(C)p.r(C)p.r(U)p.r(U)p.r(C)p.m(C)p.r(A)p.r(G)p.r(U)p.r(U)p.r(C)p.r(C)p.r(U)p.m(U)p.m(A)p.r(A)p.r(A)p.r(G)p.r(C)p.r(T)p.r(T)}$$$RNA1{StrandType:ss}|RNA2{StrandType:as}$”, the target mRNA knockdown is 72%.

For “RNA1{m(A)p.r(A)p.m(G)p.r(G)p.m(A)p.r(G)p.m(A)p.r(U)p.m(C)p.r(A)p.m(A)p.r(C)p.m(A)p.r(U)p.m(U)p.r(U)p.m(U)p.r(C)p.m(A)p.r(T)p.r(T)}|RNA2{r(U)p.m(G)p.r(A)p.m(A)p.r(A)p.m(A)p.r(U)p.m(G)p.r(U)p.m(U)p.r(G)p.m(A)p.r(U)p.m(C)p.r(U)p.m(C)p.r(C)p.m(U)p.r(U)p.r(T)p.r(T)}$$$RNA1{StrandType:ss}|RNA2{StrandType:as}$”, the target mRNA knockdown worked out at 65%.

On to “RNA1{r(C)p.r(U)p.r(U)p.r(A)p.r(C)p.r(G)p.r(C)p.r(U)p.r(G)p.r(A)p.r(G)p.r(U)p.r(A)p.r(C)p.r(U)p.r(U)p.r(C)p.r(G)p.r(A)p.r(T)p.r(T)}|RNA2{[lna](T)p.r(C)p.r(G)p.r(A)p.r(A)p.r(G)p.[lna](T)p.r(A)p.r(C)p.[lna](T)p.r(C)p.r(A)p.r(G)p.r(C)p.r(G)p.[lna](T)p.r(A)p.r(A)p.r(G)p.[lna](T)p.[lna](T)}$$$RNA1{StrandType:ss}|RNA2{StrandType:as}$”, for which the target mRNA knockdown was found to be 19%.

As for “RNA1{r(G)p.r(G)p.r(A)p.r(C)p.r(A)p.r(U)p.r(U)p.r(C)p.r(A)p.r(G)p.r(A)p.r(A)p.r(C)p.r(A)p.r(A)p.r(G)p.r(A)p.r(A)p.r(A)p.[una](U)p.[una](U)}|RNA2{[una](U)p.r(U)p.r(U)p.r(C)p.r(U)p.r(U)p.r(G)p.r(U)p.r(U)p.r(C)p.r(U)p.r(G)p.r(A)p.r(A)p.r(U)p.r(G)p.r(U)p.r(C)p.r(C)p.[una](U)p.[una](U)}$$$RNA1{StrandType:ss}|RNA2{StrandType:as}$”, the target mRNA knockdown was found to be 75%.

As for “RNA1{r(U)p.[fl2r](U)p.r(A)p.r(C)p.r(C)p.r(C)p.r(C)p.r(G)p.r(A)p.r(U)p.r(U)p.r(C)p.r(A)p.r(G)p.r(C)p.r(C)p.r(U)p.r(C)p.r(U)p.r(T)p.r(T)}|RNA2{r(A)p.r(G)p.r(A)p.r(G)p.r(G)p.r(C)p.r(U)p.r(G)p.r(A)p.r(A)p.r(U)p.r(C)p.r(G)p.r(G)p.r(G)p.r(G)p.r(U)p.[fl2r](A)p.r(A)p.r(T)p.r(T)}$$$RNA1{StrandType:ss}|RNA2{StrandType:as}$”, the target mRNA knockdown came out at 69%.

In the case of “RNA1{r(U)p.r(C)p.r(C)p.r(A)p.r(A)p.r(G)p.r(C)p.r(U)p.r(U)p.r(C)p.r(C)p.r(U)p.r(C)p.r(G)p.r(U)p.r(U)p.r(G)p.r(G)p.r(U)p.r(T)p.r(T)}|RNA2{r(A)p.r(C)p.[fl2r](C)p.r(A)p.r(A)p.r(C)p.r(G)p.r(A)p.r(G)p.r(G)p.r(A)p.r(A)p.r(G)p.r(C)p.r(U)p.[fl2r](U)p.r(G)p.r(G)p.r(A)p.r(T)p.r(T)}$$$RNA1{StrandType:ss}|RNA2{StrandType:as}$”, the target mRNA knockdown was determined as 71%.

Take “RNA1{r(C)p.r(U)p.r(U)p.r(A)p.r(C)p.r(G)p.r(C)p.r(U)p.r(G)p.r(A)p.r(G)p.r(U)p.r(A)p.r(C)p.r(U)p.r(U)p.r(C)p.r(G)p.r(A)p.[lna](T)p.[lna](T)}|RNA2{r(U)p.r(C)p.r(G)p.r(A)p.r(A)p.r(G)p.r(U)p.r(A)p.r(C)p.r(U)p.r(C)p.r(A)p.r(G)p.r(C)p.r(G)p.r(U)p.r(A)p.r(A)p.r(G)p.[lna](T)p.[lna](T)}$$$RNA1{StrandType:ss}|RNA2{StrandType:as}$”: the target mRNA knockdown is 93% and 92%.

For the substance “RNA1{r(A)p.m(C)p.m(C)p.m(U)p.m(U)p.m(U)p.m(C)p.m(C)p.r(A)p.m(C)p.m(U)p.m(U)p.m(C)p.m(U)p.r(A)p.r(A)p.r(G)p.m(C)p.m(C)p.r(T)p.r(T)}|RNA2{r(G)p.r(G)p.r(C)p.r(U)p.r(U)p.r(A)p.r(G)p.r(A)p.r(A)p.r(G)p.r(U)p.r(G)p.r(G)p.r(A)p.r(A)p.r(A)p.r(G)p.r(G)p.r(U)p.r(T)p.r(T)}$$$RNA1{StrandType:ss}|RNA2{StrandType:as}$”, the target mRNA knockdown amounted to 75%.

“RNA1{r(G)p.r(G)p.r(A)p.r(C)p.r(A)p.r(U)p.r(U)p.r(C)p.r(A)p.r(G)p.r(A)p.r(A)p.r(C)p.r(A)p.r(A)p.r(G)p.r(A)p.r(A)p.r(A)p.[una](U)p.[una](U)}|RNA2{r(U)p.r(U)p.r(U)p.r(C)p.r(U)p.r(U)p.r(G)p.r(U)p.r(U)p.[una](C)p.r(U)p.r(G)p.r(A)p.r(A)p.r(U)p.r(G)p.r(U)p.r(C)p.r(C)p.[una](U)p.[una](U)}$$$RNA1{StrandType:ss}|RNA2{StrandType:as}$” gave a target mRNA knockdown of 17%.

Substance “RNA1{r(A)p.r(G)p.r(U)p.r(U)p.r(U)p.r(C)p.[fl2r](U)p.r(A)p.r(G)p.r(G)p.r(G)p.r(C)p.r(C)p.r(G)p.[fl2r](U)p.r(G)p.r(G)p.r(C)p.r(C)p.r(T)p.r(T)}|RNA2{r(G)p.r(G)p.r(C)p.[fl2r](C)p.r(A)p.r(C)p.r(G)p.[fl2r](G)p.r(C)p.r(C)p.r(C)p.[fl2r](U)p.r(A)p.r(G)p.r(A)p.r(A)p.r(A)p.r(C)p.r(U)p.r(T)p.r(T)}$$$RNA1{StrandType:ss}|RNA2{StrandType:as}$” had a target mRNA knockdown of 85%.

In the case of “RNA1{r(C)p.r(G)p.r(U)p.r(A)p.r(C)p.r(G)p.r(C)p.r(G)p.r(G)p.r(A)p.r(A)p.r(U)p.r(A)p.r(C)p.r(U)p.r(U)p.r(C)p.r(G)p.r(A)p.r(T)p.r(T)}|RNA2{[s4r](U)p.r(C)p.r(G)p.r(A)p.r(A)p.r(G)p.[s4r](U)p.r(A)p.[s4r](U)p.[s4r](U)p.r(C)p.r(C)p.r(G)p.r(C)p.r(G)p.[s4r](U)p.r(A)p.r(C)p.r(G)p.r(T)p.r(T)}$$$RNA1{StrandType:ss}|RNA2{StrandType:as}$”, the target mRNA knockdown was determined as 79.5%.

As to “RNA1{r(A)p.r(U)p.r(C)p.r(G)p.r(C)p.[fl2r](U)p.r(G)p.r(C)p.r(U)p.r(C)p.r(C)p.r(U)p.r(C)p.r(C)p.r(U)p.r(C)p.r(C)p.r(U)p.r(C)p.r(T)p.r(T)}|RNA2{r(G)p.r(A)p.r(G)p.r(G)p.r(A)p.r(G)p.r(G)p.r(A)p.r(G)p.r(G)p.r(A)p.r(G)p.[fl2r](C)p.r(A)p.r(G)p.r(C)p.r(G)p.r(A)p.r(U)p.r(T)p.r(T)}$$$RNA1{StrandType:ss}|RNA2{StrandType:as}$”, the target mRNA knockdown came to 71%.

For the substance “RNA1{m(A)p.r(A)p.m(A)p.r(G)p.m(C)p.r(G)p.m(G)p.r(U)p.m(G)p.r(G)p.m(A)p.r(U)p.m(C)p.r(A)p.m(G)p.r(C)p.m(U)p.r(C)p.m(U)p.r(T)p.r(T)}|RNA2{r(A)p.m(G)p.r(A)p.m(G)p.r(C)p.r(U)p.r(G)p.r(A)p.r(U)p.r(C)p.r(C)p.r(A)p.r(C)p.r(C)p.m(G)p.r(C)p.r(U)p.r(U)p.r(U)p.r(T)p.r(T)}$$$RNA1{StrandType:ss}|RNA2{StrandType:as}$”, the target mRNA knockdown is 43%.

“RNA1{r(G)p.r(G)p.r(G)p.r(A)p.r(G)p.r(G)p.r(U)p.r(C)p.r(U)p.m(U)p.r(A)p.r(G)p.r(A)p.r(A)p.r(A)p.r(A)p.r(C)p.r(A)p.r(C)p.r(T)p.r(T)}|RNA2{r(G)p.r(U)p.r(G)p.r(U)p.r(U)p.r(U)p.r(U)p.r(C)p.m(U)p.r(A)p.r(A)p.r(G)p.r(A)p.r(C)p.r(C)p.r(U)p.r(C)p.r(C)p.r(C)p.r(T)p.r(T)}$$$RNA1{StrandType:ss}|RNA2{StrandType:as}$”: the target mRNA knockdown stood at 84%.

As for “RNA1{r(G)p.r(A)p.r(C)p.r(G)p.[hna](U)p.r(A)p.r(A)p.[hna](A)p.r(C)p.r(G)p.[hna](G)p.r(C)p.r(C)p.[hna](A)p.r(C)p.r(A)p.r(A)p.r(G)p.r(U)p.[hna](U)p.d(T)}|RNA2{[fl2r](A)p.m(C)p.[fl2r](U)p.m(U)p.[fl2r](G)p.m(U)p.[fl2r](G)p.m(G)p.[fl2r](C)p.m(C)p.[fl2r](G)p.m(U)p.[fl2r](U)p.m(U)p.[fl2r](A)p.m(C)p.[fl2r](G)p.m(U)p.[fl2r](C)p.m(G)p.[fl2r](C)}$$$RNA1{StrandType:ss}|RNA2{StrandType:as}$”, the target mRNA knockdown was determined as 13.2%.

Substance “RNA1{r(G)p.r(U)p.r(A)p.r(U)p.r(G)p.r(A)p.r(C)p.r(C)p.r(G)p.r(A)p.r(C)p.r(U)p.r(A)p.r(C)p.r(G)p.r(C)p.r(G)p.r(U)p.r(A)p.r(T)p.r(T)}|RNA2{r(U)p.r(U)p.r(C)p.r(A)p.r(G)p.r(U)p.r(G)p.r(U)p.r(G)p.r(A)p.r(U)p.[una](G)p.r(A)p.r(C)p.r(A)p.r(C)p.r(U)p.r(U)p.r(G)p.r(T)p.r(T)}$$$RNA1{StrandType:ss}|RNA2{StrandType:as}$” showed a target mRNA knockdown of 59%.

Turning to “RNA1{[fl2r](A)p.r(U)p.r(C)p.[fl2r](G)p.[fl2r](A)p.r(C)p.r(C)p.r(U)p.[fl2r](G)p.[fl2r](A)p.[fl2r](A)p.[fl2r](G)p.[fl2r](G)p.[fl2r](A)p.[fl2r](G)p.r(U)p.[fl2r](A)p.r(C)p.[fl2r](G)p.r(T)p.r(T)}|RNA2{r(C)p.[fl2r](G)p.r(U)p.[fl2r](A)p.r(C)p.r(U)p.r(C)p.r(C)p.r(U)p.r(U)p.r(C)p.[fl2r](A)p.[fl2r](G)p.[fl2r](G)p.r(U)p.r(C)p.[fl2r](G)p.[fl2r](A)p.r(U)p.r(T)p.r(T)}$$$RNA1{StrandType:ss}|RNA2{StrandType:as}$”, the target mRNA knockdown was 21%.
